Experimental data as given in paper PMC7613515, “Reading and erasing of the phosphonium analogue of trimethyllysine by epigenetic proteins” (Communications Chemistry, 2022).

Columns and labels:
four of the readers = assay: ITC, reader domains taken together; format: binding, human; details: four of the five readers
From the text: We investigated the thermodynamics of association of the H3KP4me3 peptide with five representative human reader domains containing either a PHD zinc finger or TTD, i.e. KDM5APHD3 (JARID1A-PHD3, residues M1489–V1641)[10], TAF3PHD (R857–K924)[22], BPTFPHD (L2583–N2751)[23], SGF29TTD (R115–K293)[24] and KDM4ATTD (JMJD2A, Q897-P1011)[25], selected on the basis of their preference for binding Ν^ε-trimethyllysine over other (non)methylation marks (Kme0 < Kme1 < Kme2 < Kme3), and their domain and aromatic cage diversity. The recombinant readers were produced in E. coli following reported procedures. Isothermal titration calorimetric (ITC) analyses were used to determine the dissociation constant (Kd), the Gibbs free energy of binding (ΔG°), the enthalpy of binding (ΔH°), and the entropy of binding (ΔS°). […] (Table 1, Fig. 2, Supplementary Fig. 1).
ITC studies followed a reported procedure. […] Histone peptide titrations were performed with the same reader batches. Solutions of the reader in buffer (25–40 µM) and of the histone H3 peptide (350–600 µM) in buffer were prepared. […] Heats of dilution for histone peptides determined in control experiments were subtracted from the titration binding data. Data were analysed with Origin 6.0 (Microcal Inc., Northampton, Massachusetts, USA) and curve fitting with one-site binding mode was applied.

KDM4EJmjC (M1–Q337) = molecular target: T1, KDM4EJmjC (M1–Q337) (Homo sapiens, UniProt B2RXH2); assay: NMR demethylation assay (1H, 31P), KDM4EJmjC; format: biochemical; details: KDM4EJmjC 50 µM
T1 construct: We chose human KDM4EJmjC (M1–Q337); made in house
T1 sequence (B2RXH2 1-337): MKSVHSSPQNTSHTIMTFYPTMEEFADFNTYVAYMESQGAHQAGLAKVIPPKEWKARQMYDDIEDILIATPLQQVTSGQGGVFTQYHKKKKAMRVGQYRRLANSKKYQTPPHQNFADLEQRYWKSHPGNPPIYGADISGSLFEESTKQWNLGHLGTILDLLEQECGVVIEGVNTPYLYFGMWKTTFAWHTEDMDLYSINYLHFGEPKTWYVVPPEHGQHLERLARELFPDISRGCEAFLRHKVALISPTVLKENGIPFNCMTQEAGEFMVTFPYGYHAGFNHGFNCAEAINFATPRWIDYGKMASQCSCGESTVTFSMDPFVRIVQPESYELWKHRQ
Protocol: Incubations of H3_1-15KP9me3 with KDM4EJmjC were performed in Eppendorf tubes (1.5 mL). Conditions used for ^1H and ^31P NMR time-courses: H3_1-15KP9me3 (250 µM) was incubated with KDM4EJmjC (50 µM), sodium ascorbate (1.00 mM), 2OG (500 µM), and Fe(NH4)2(SO4)2 (100 µM) in HEPES-d18 buffer (50 mM, pH 7.5) in D2O ( > 95% ^2H). Reactions (160 µL total volume) were quenched by addition of HCl (1 M, 10 equivalents) after the indicated time. The samples were centrifuged (1 min, 14,500 rpm) and the supernatant transferred to an NMR tube (3 mm, Norell). For characterisation of the products from the incubation of H3_1-15KP9me3 with KDM4EJmjC the following conditions were used: Peptide H3_1-15KP9me3 (500 µM) was incubated with sodium ascorbate (1.00 mM) 2-oxoglutarate (1.00 mM), Fe(NH4)2(SO4)2 (100 µM), and KDM4EJmjC (50.0 µM), in HEPES-d18 buffer (50 mM, pH 7.5) in D2O (>95% ^2H) for 1 hour. Reactions were quenched by addition of HCl (1 M, 10 equivalents), or by heating (95 °C, 10 min). Precipitated proteins were removed by centrifugation (1 min, 14,500 rpm) and the supernatant transferred to an NMR tube (3 mm, Norell). Spectra were measured using a Bruker 600 MHz machine and analysed using MestReNova 14.1 (MestReLabs, Spain; www.mestrelab.com) and Topspin 3.6.1 (Bruker, Germany; www.bruker.com). […]

Molecule | binding relative to H3K4me3 (four of the readers) | demethylation (KDM4EJmjC (M1–Q337); 1H and 31P NMR, H3KP9me3 250 or 500 µM, HEPES-d18 pH 7.5 in D2O) | demethylation with 2OG turnover to succinate (KDM4EJmjC (M1–Q337); NMR time-course, H3KP9me3 250 µM)
C[C@H](N)C(=O)N[C@@H](CCCNC(=N)N)C(=O)N[C@H](C(=O)N[C@@H](CCCC[P+](C)(C)C)C(=O)N[C@@H](CCC(N)=O)C(=O)N[C@H](C(=O)N[C@@H](C)C(=O)N[C@@H](CCCNC(=N)N)C(=O)N[C@@H](CCCCN)C(=O)N[C@@H](CO)C(N)=O)[C@@H](C)O)[C@@H](C)O [H3KP4me3] | stronger complex formation than with H3K4me3 |  | 
ARTKQTAR(KPme3)STGGKA [H3KP9me3, histone H3 residues 1–15 with trimethylphosphonium lysine analogue at position 9] |  | the reaction proceeded to give signals corresponding to H3KP9me2 and H3KP9me2O | confirmed demethylation and conversion of 2OG to succinate
